In patent US8410109B2, “Pharmaceutical compositions for the prevention and treatment of complex diseases and their delivery by insertable medical devices” (Resverlogix Corp., priority 2005, dated 2013):

Columns and labels:
[1] = system: Human coronary artery smooth muscle cells (CASMCs); assay: Smooth muscle cell proliferation protocol; format: cell-based; details: 50 uM, 72 hours, read-out: % Inhibition of SMC Proliferation
Protocol: Compounds were dissolved in DMSO, aliquoted, and stored at −20° C. Human coronary artery smooth muscle cells (CASMCs) were plated in 96-well plates and were grown in SmBM-2 media. After 1-2 hours, media was aspirated and replaced with serum-free ME/F12 media, except the controls. Cells were incubated for a further 48 hours. Compounds were diluted in DME/F12 containing 10% FBS. Media was aspirated from the plates and compounds in DME/F12 containing 10% FBS. Six wells were used per condition and duplicate plates were used. Cells were incubated for a further 72 hours. Media was aspirated from one set of plates; those cells were refed (˜100 μL/well) with 20% CellTiter 96 Aqueous One Cell Proliferation Solution (Promega), 80% EGM-2 medium. Media optical density (at 490 nm) was determined after 3-4 hours. In the second set of plates, serum-free DME/F12 media (20 μL) was added to each well. Part of the supernatant (50 μL) was removed and placed in an ELISA plate and was stored temporarily at 4° C. The remaining media and cells in the second set of plates were freeze-thawed for four cycles. The lysates and supernatants were mixed and centrifuged. Part of the supernatant (50 μL) was removed and placed in an ELISA plate. The Promega Cytotox assay was performed on the ELISA plates. The ratio of supernatant OD to supernatant+cell lysate OD was determined.
In Table 2, a positive result (+) was defined as at least 40% inhibition of the proliferation of SMC, as determined by the assay.

[2] = system: MCP-1; assay: MCP-1 ELISA on culture media of TNF-α stimulated HUVECs; format: cell-based; details: Homo sapiens, HUVEC, 50 uM, approx. 16 hours
Protocol: (§1) Compounds were dissolved in DMSO, aliquoted, and stored at −20° C. Cultured human vascular endothelial cells (HUVECs) were seeded in 96-well plates in complete EGM-2 media (˜100 μL/well); cells were plated at ˜2-3×10^5/mL, and were from passage 8 to 12. Cells were incubated overnight. On the following day cells are stimulated with TNF-α (˜1 ng/mL) in the presence or absence of compounds dissolved in DMSO. Triplicate wells were used for each test. To establish a dose curve and an IC50, multiple concentrations in 2- to 5-fold increments were used. Cells were exposed to TNF-α and compounds for approximately 16 hours. The next day, cells were visually examined via light microscopy to score for visual signs of toxicity. Cell culture media was analyzed using an MCP-1 ELISA. Cells were refed (−100 μL/well) with 20% CellTiter 96. Aqueous One Cell Proliferation Solution (Promega), 80% EGM-2 medium. Media optical density (at 490 nm) was determined after 1 hour. Plates were aspirated and cell lysates were prepared and these lysates were tested using a VCAM-1 ELISA.
(§2) In Table 2, a positive result (+) was defined as at least 50% inhibition of the protein levels MCP-1 or VCAM-1, as determined by the ELISA.

[3] = system: VCAM-1; assay: VCAM-1 ELISA on lysates of TNF-α stimulated HUVECs; format: cell-based; details: Homo sapiens, HUVEC, 50 uM, approx. 16 hours
Protocol: as §1, §2

[4] = following oral administration (Gugler et al. 1975); cited from earlier work

SMILES	melting point	inhibition at 50 µM [1]	inhibition at 50 µM [2]	inhibition at 50 µM [3]	intestinal absorption [4]
O=c1cc(-c2ccc(CO)cc2)oc2ncccc12 [EXAMPLE 23, 2-(4-(hydroxymethyl)phenyl)-4H-pyrano[2,3-b]pyridin-4-one]	218 to 219 °C	≥ 40%	< 50%	< 50%	
Cc1cc(-c2cc(=O)c3cccnc3o2)cc(C)c1O [EXAMPLE 24, 2-(4-hydroxy-3,5-dimethylphenyl)-4H-pyrano[2,3-b]pyridin-4-one]	295 to 297 °C	≥ 40%	≥ 50%	≥ 50%	
O=c1cc(-c2cccnc2)oc2ccccc12 [EXAMPLE 25, 2-(pyridin-3-yl)-4H-chromen-4-one]	122.8 to 124 °C	≥ 40%	< 50%	< 50%	
O=c1cc(-c2ccc(O)c(-c3cccs3)c2)oc2ncccc12 [EXAMPLE 28, 2-(4-hydroxy-3-(thiophen-2-yl)phenyl)-4H-pyrano[2,3-b]pyridin-one]	273.5 to 275 °C	< 40%	< 50%	≥ 50%	
Cc1cc(-c2cc(=O)c3cccnc3o2)cc(C)c1OCC(=O)O [EXAMPLE 29, 2-(2,6-dimethyl-4-(4-oxo-4H-pyrano[2,3-b]pyridin-2-yl)phenoxy)acetic Acid]	280 °C	≥ 40%	< 50%	< 50%	
O=c1cc(-c2ccc(O)c(Br)c2)oc2ncccc12 [EXAMPLE 32, 2-(3-Bromo-4-hydroxyphenyl)-4H-pyrano[2,3-b]pyridin-4-one]	267 to 272 °C	≥ 40%	< 50%	≥ 50%	
O=c1[nH]c2ccc(-c3cc(=O)c4ccccc4o3)cc2o1 [EXAMPLE 36, 6-(4-oxo-4H-chromen-2-yl)benzo[d]oxazol-2(3H)-one]	347.6 to 348.2 °C	≥ 40%	< 50%	≥ 50%	
COc1cc(OC)c2c(=O)[nH]c(-c3cc(C)c(OCC(C)(C)O)c(C)c3)cc2c1 [EXAMPLE 42, 3-(4-(2-hydroxy-2-methylpropoxy)-3,5-dimethylphenyl)-6,8-dimethoxyisoquinolin-1(2H)-one]	252 to 254 °C	≥ 40%	< 50%	≥ 50%	
O=c1cc(-c2ccc3nccnc3c2)oc2ncccc12 [EXAMPLE 44, 2-(quinoxalin-6-yl)-4H-pyrano[2,3-b]pyridin-4-one]	272.3 to 274.8 °C	≥ 40%	< 50%	≥ 50%	
COc1cc(OC)c2c(N)nc(-c3cc(C)c(O)c(C)c3)cc2n1 [EXAMPLE 45, 4-(5-amino-2,4-dimethoxy-1,6-naphthyridin-7-yl)-2,6-dimethylphenol]	163.2 to 165.5 °C	≥ 40%	< 50%	≥ 50%	
O=c1[nH]c(-c2ccc(F)cc2)nc2ccc(CN3CCOCC3)cc12 [EXAMPLE 46, 2-(4-fluorophenyl)-6-(morpholinomethyl)quinazolin-4(3H)-one]	321.8 to 323.3 °C	≥ 40%	< 50%	< 50%	
O=c1cc(-c2ccc3[nH]ncc3c2)oc2ncc(CN3CCOCC3)cc12 [EXAMPLE 47, 2-(1H-indazol-5-yl)-6-(morpholinomethyl)-4H-pyrano[2,3-b]pyridin-4-one]	293.1 to 293.2 °C	≥ 40%	< 50%	< 50%	
O=c1c(O)c(-c2ccc(O)c(O)c2)oc2cc(O)cc(O)c12 [quercetin]					less than 1%
